Laboratory results as given in patent US9873883B2, “Glyphosate resistant plants and associated methods” (Dow AgroSciences LLC, priority 2012, dated 2018).

Columns and labels:
[1] = molecular target: Triticum aestivum (wheat) EPSP synthase DGT-7 v5, native (GENBANK EU977181), SEQ ID NO: 60 (Triticum aestivum, UniProt B5M6A1); assay: In vitro kinetic assay (inorganic phosphate production, malachite green); format: biochemical
Source text: (§1) FIG. 1 depicts a partial sequence alignment of DGT-14 (SEQ ID NO:46), DGT-11 (SEQ ID NO:47), DGT-12 (SEQ ID NO:49), DGT-18 (SEQ ID NO:50), DGT-29 (SEQ ID NO:53), and DGT-30 (SEQ ID NO:52) to other EPSP synthase enzymes, such as; grg-23 (SEQ ID NO:54; derived from U.S. Pat. No. 7,834,249), CP4 (SEQ ID NO:48; GENBANK ACC NO: AEM75108.1) from Agrobacterium tumefaciens, DGT-3 (SEQ ID NO:57; GENBANK ACC NO: P17688) from Brassica napus, DGT-1 (SEQ ID NO:56) from Glycine max, DGT-7 (SEQ ID NO:55; GENBANK ACC NO: EU977181) from Triticum aestivum, and aroA (SEQ ID NO:51; Padgette et al., (1991); Eschenburg et al., (2002); Priestman et al., (2005); Haghani et al., (2008) from Escherichia coli. All six DGT enzymes (DGT-14, DGT-11, DGT-12, DGT-18, DGT-30, and DGT-29) share a conserved alanine at the aroA EPSP synthase enzyme amino acid position 96. The location of this amino acid is indicated by an asterisk, and the amino acid residue is underlined.
(§2) The location of the amino acid residue which was mutated from glycine to alanine is indicated by the first asterisk. The location of the amino acid residue which was mutated from threonine to isoleucine is indicated by the second asterisk. The location of the third amino acid residue which was mutated from proline to serine is indicated by the third asterisk.
(§3) The following Class I enzymes: DGT-1 from Glycine max, DGT-3 from Brassica napus (GENBANK ACC NO: P17688), and DGT-7 from Triticum aestivum (GENBANK ACC NO: EU977181) were used as a comparison. The Class I EPSP synthase enzymes and mutant variants thereof were synthesized and evaluated. A mutation introduced into the plant EPSP synthase enzymes consisted of the Glycine to Alanine mutation made within the EPSP synthase enzyme at a similar location as that of the G96A mutation from the E. coli version of the enzyme. In addition, Threonine to Isoleucine and Proline to Serine mutations were introduced within these Class I EPSP synthase enzymes at analogous positions as that of amino acid 97 (T to I) and amino acid 101 (P to S) in the EPSP synthase of E. coli as described in Funke et al., (2009).
(§4) Additional constructs containing the dgt-1, dgt-3 and dgt-7 were synthesized. These constructs were used for in vitro testing of the dgt-1 v5, dgt-1 v6, dgt-1 v7, dgt-1 v8, dgt-3 v6, dgt-3 v7, dgt-3 v8, dgt-7 v5, dgt-7 v6, dgt-7 v7, and dgt-7 v8 gene sequences were outsourced to GeneArt for synthesis and cloning. The synthesized genes were cloned into the pET28 expression vector. […]

[2] = molecular target: Glycine max (soybean) EPSP synthase DGT-1 v5, native, SEQ ID NO: 59 (Glycine max, UniProt I1J7U9); assay: as above; format: biochemical
Sequence of Glycine max (soybean) EPSP synthase DGT-1 v5, native, SEQ ID NO: 59 (I1J7U9 entry or part of it): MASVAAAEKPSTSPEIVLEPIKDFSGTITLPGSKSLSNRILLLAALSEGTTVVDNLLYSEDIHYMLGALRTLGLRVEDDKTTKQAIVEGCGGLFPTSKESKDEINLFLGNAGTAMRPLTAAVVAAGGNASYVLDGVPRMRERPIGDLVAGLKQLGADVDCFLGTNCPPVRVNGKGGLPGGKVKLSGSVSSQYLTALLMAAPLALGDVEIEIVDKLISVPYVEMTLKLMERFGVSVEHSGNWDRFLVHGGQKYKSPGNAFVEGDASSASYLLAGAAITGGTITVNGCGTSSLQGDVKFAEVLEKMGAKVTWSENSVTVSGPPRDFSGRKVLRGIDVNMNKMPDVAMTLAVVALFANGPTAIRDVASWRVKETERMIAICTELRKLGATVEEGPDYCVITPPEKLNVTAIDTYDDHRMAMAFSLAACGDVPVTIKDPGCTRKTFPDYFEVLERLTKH
Source text: as §1, §2, §3, §4

Sequence of Triticum aestivum (wheat) EPSP synthase DGT-7 v5, native (GENBANK EU977181), SEQ ID NO: 60 (B5M6A1 entry or part of it): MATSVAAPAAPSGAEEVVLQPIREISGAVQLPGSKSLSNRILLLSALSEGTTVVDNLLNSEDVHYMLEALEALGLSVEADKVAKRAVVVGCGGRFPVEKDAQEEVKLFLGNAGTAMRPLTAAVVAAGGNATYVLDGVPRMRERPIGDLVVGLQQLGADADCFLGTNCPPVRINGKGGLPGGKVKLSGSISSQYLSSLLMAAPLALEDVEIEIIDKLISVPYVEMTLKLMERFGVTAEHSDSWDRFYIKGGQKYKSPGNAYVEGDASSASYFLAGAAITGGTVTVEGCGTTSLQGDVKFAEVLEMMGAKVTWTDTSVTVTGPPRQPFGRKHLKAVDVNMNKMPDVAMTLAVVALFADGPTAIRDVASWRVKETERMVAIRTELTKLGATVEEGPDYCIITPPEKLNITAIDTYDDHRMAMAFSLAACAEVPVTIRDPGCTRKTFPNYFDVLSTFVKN

SMILES: O=C(O)CNCP(=O)(O)O [glyphosate, N-(phosphonomethyl)glycine]
- IC50 [1]: ~20 µM
- IC50 [2]: ~20 µM

SMILES: C=C(OP(=O)(O)O)C(=O)O [PEP, phosphoenolpyruvate]
- kcat/Km ([1]; PEP, pH 7.5, 1 mM S3P): 215000 M⁻¹ s⁻¹
- kcat/Km ([2]; PEP, pH 7.5, 1 mM S3P): 74100 M⁻¹ s⁻¹
